Reference: ChEMBL document CHEMBL3885861, “Open TG-GATES”

Species: Rattus norvegicus
Assay: Open TG-GATES - Regimen: Daily Repeat
Type: toxicity, organism-based, Sprague-Dawley
Set-up: regimen Daily Repeat, gender Male, age 6 weeks
Settings: in vivo, po, route gavage; for APTT / Bas / Eos / Fbg / Hb / Ht / Lym / MCH / MCHC / MCV / Mono / Neu / PT / Plat / RBC / Ret / WBC: tissue Blood; for LIVER: tissue Liver; for A/G / ALP / ALT / AST / BUN / CRE / Ca / Cl / DBIL / GLC / IP / K / LDH / Na / PL / RALB / TBIL / TC / TG / TP / gamma-GTP: tissue Plasma
[1] = 15 mg/kg, 72 h, dose level Middle, time 3 day
[2] = 15 mg/kg, […], dose level Middle, time 7 day
[3] = 15 mg/kg, […], dose level Middle, time 14 day
[4] = 15 mg/kg, […], dose level Middle, time 28 day
[5] = 50 mg/kg, 72 h, dose level High, time 3 day
[6] = 50 mg/kg, […], dose level High, time 7 day
[7] = 50 mg/kg, […], dose level High, time 14 day
[8] = 50 mg/kg, […], dose level High, time 28 day

Q: Which results are given for `C=C(C)[C@H]1Cc2c(ccc3c2O[C@@H]2COc4cc(OC)c(OC)cc4[C@@H]2C3=O)O1` [ROTENONE]?
A: TERMINAL_BW [1]: 217.2 g; APTT [1]: 15.9 s; Bas [1]: 0%; Eos [1]: 1%; Fbg [1]: 211.8 mg/dL; Hb [1]: 13.1 g/dL; Ht [1]: 40.2%; Lym [1]: 71%; MCH [1]: 20.9 pg; MCHC [1]: 32.7%; MCV [1]: 63.9 fL; Mono [1]: 7.8%; Neu [1]: 20.4%; PT [1]: 11.8 s; Plat [1]: 122 x10_4/uL; RBC [1]: 628.8 x10_4/ul; Ret [1]: 6.1%; WBC [1]: 99.8 x10_2/uL; LIVER [1]: 10.7 g; A/G [1]: 2.2; ALP [1]: 1449.2 IU/L; ALT [1]: 37.8 IU/L; AST [1]: 70.6 IU/L; BUN [1]: 17 mg/dL; CRE [1]: 0.4 mg/dL; Ca [1]: 11.8 mg/dL; Cl [1]: 104.2 meq/L; DBIL [1]: 0.014 mg/dL; GLC [1]: 188.4 mg/dL; IP [1]: 7.3 mg/dL; K [1]: 4.3 meq/L; LDH [1]: 117 IU/L; Na [1]: 141.8 meq/L; PL [1]: 149.8 mg/dL; RALB [1]: 3.7 g/dL; TBIL [1]: 0.038 mg/dL; TC [1]: 79.2 mg/dL; TG [1]: 104.8 mg/dL; TP [1]: 5.5 g/dL; gamma-GTP [1]: 0.6 IU/L; TERMINAL_BW [2]: 254.3 g; TERMINAL_BW [3]: 305.1 g; TERMINAL_BW [4]: 389.3 g; APTT [2]: 17 s; Bas [2]: 0%; Eos [2]: 1%; Fbg [2]: 237.8 mg/dL; Hb [2]: 13.3 g/dL; Ht [2]: 40.4%; Lym [2]: 74.2%; MCH [2]: 20.6 pg; MCHC [2]: 32.8%; MCV [2]: 62.9 fL; Mono [2]: 5.8%; Neu [2]: 19.2%; PT [2]: 11.4 s; Plat [2]: 140.2 x10_4/uL; RBC [2]: 643.4 x10_4/ul; Ret [2]: 5%; WBC [2]: 113.4 x10_2/uL; APTT [3]: 15.6 s; Bas [3]: 0%; Eos [3]: 1%; Fbg [3]: 240.8 mg/dL; Hb [3]: 13.8 g/dL; Ht [3]: 41.7%; Lym [3]: 75.2%; MCH [3]: 20.6 pg; MCHC [3]: 33%; MCV [3]: 62.3 fL; Mono [3]: 3.8%; Neu [3]: 20.2%; PT [3]: 11.5 s; Plat [3]: 130 x10_4/uL; RBC [3]: 670.4 x10_4/ul; Ret [3]: 3.8%; WBC [3]: 127.2 x10_2/uL; APTT [4]: 18 s; Bas [4]: 0%; Eos [4]: 1.2%; Fbg [4]: 196.8 mg/dL; Hb [4]: 14.9 g/dL; Ht [4]: 45.4%; Lym [4]: 77.8%; MCH [4]: 18.9 pg; MCHC [4]: 32.8%; MCV [4]: 57.7 fL; Mono [4]: 5%; Neu [4]: 16.2%; PT [4]: 12.5 s; Plat [4]: 126.2 x10_4/uL; RBC [4]: 786 x10_4/ul; Ret [4]: 1.8%; WBC [4]: 111.5 x10_2/uL; LIVER [2]: 13 g; LIVER [3]: 14.1 g; LIVER [4]: 17.3 g; A/G [2]: 2.2; ALP [2]: 1376.6 IU/L; ALT [2]: 35.4 IU/L; AST [2]: 67 IU/L; BUN [2]: 17.2 mg/dL; CRE [2]: 0.4 mg/dL; Ca [2]: 11.5 mg/dL; Cl [2]: 103.2 meq/L; DBIL [2]: 0.016 mg/dL; GLC [2]: 198.6 mg/dL; IP [2]: 7.4 mg/dL; K [2]: 4.3 meq/L; LDH [2]: 110.8 IU/L; Na [2]: 140.4 meq/L; PL [2]: 150.6 mg/dL; RALB [2]: 3.8 g/dL; TBIL [2]: 0.036 mg/dL; TC [2]: 82.4 mg/dL; TG [2]: 105.2 mg/dL; TP [2]: 5.6 g/dL; gamma-GTP [2]: 1 IU/L; A/G [3]: 2.1; ALP [3]: 1261.6 IU/L; ALT [3]: 36.2 IU/L; AST [3]: 68.4 IU/L; BUN [3]: 18.4 mg/dL; CRE [3]: 0.4 mg/dL; Ca [3]: 11.6 mg/dL; Cl [3]: 105 meq/L; DBIL [3]: 0.01 mg/dL; GLC [3]: 188.6 mg/dL; IP [3]: 6.9 mg/dL; K [3]: 4.4 meq/L; LDH [3]: 103.6 IU/L; Na [3]: 139.6 meq/L; PL [3]: 140 mg/dL; RALB [3]: 3.9 g/dL; TBIL [3]: 0.028 mg/dL; TC [3]: 77.4 mg/dL; TG [3]: 95.2 mg/dL; TP [3]: 5.7 g/dL; gamma-GTP [3]: 1 IU/L; A/G [4]: 2; ALP [4]: 1146.8 IU/L; ALT [4]: 29.2 IU/L; AST [4]: 62 IU/L; BUN [4]: 19.5 mg/dL; CRE [4]: 0.4 mg/dL; Ca [4]: 10.9 mg/dL; Cl [4]: 105.2 meq/L; DBIL [4]: 0.01 mg/dL; GLC [4]: 186 mg/dL; IP [4]: 5.7 mg/dL; K [4]: 4.5 meq/L; LDH [4]: 124.8 IU/L; Na [4]: 141 meq/L; PL [4]: 150.8 mg/dL; RALB [4]: 3.9 g/dL; TBIL [4]: 0.0325 mg/dL; TC [4]: 68.5 mg/dL; TG [4]: 180.2 mg/dL; TP [4]: 5.9 g/dL; gamma-GTP [4]: 1 IU/L; TERMINAL_BW [5]: 199.2 g; APTT [5]: 16.3 s; Bas [5]: 0%; Eos [5]: 0.8%; Fbg [5]: 198.6 mg/dL; Hb [5]: 13.7 g/dL; Ht [5]: 41.6%; Lym [5]: 72.4%; MCH [5]: 21 pg; MCHC [5]: 32.9%; MCV [5]: 64 fL; Mono [5]: 8%; Neu [5]: 18.8%; PT [5]: 12.2 s; Plat [5]: 126.4 x10_4/uL; RBC [5]: 649.4 x10_4/ul; Ret [5]: 3.3%; WBC [5]: 91.2 x10_2/uL; LIVER [5]: 9.9 g; A/G [5]: 2.4; ALP [5]: 1100.4 IU/L; ALT [5]: 25.4 IU/L; AST [5]: 65.4 IU/L; BUN [5]: 16 mg/dL; CRE [5]: 0.4 mg/dL; Ca [5]: 11.8 mg/dL; Cl [5]: 106.6 meq/L; DBIL [5]: 0.01 mg/dL; GLC [5]: 191.2 mg/dL; IP [5]: 7.5 mg/dL; K [5]: 4.2 meq/L; LDH [5]: 93.8 IU/L; Na [5]: 142.8 meq/L; PL [5]: 136.4 mg/dL; RALB [5]: 3.9 g/dL; TBIL [5]: 0.034 mg/dL; TC [5]: 82.6 mg/dL; TG [5]: 52.6 mg/dL; TP [5]: 5.5 g/dL; gamma-GTP [5]: 0.8 IU/L; TERMINAL_BW [6]: 230.8 g; TERMINAL_BW [7]: 251.7 g; TERMINAL_BW [8]: 288.8 g; APTT [6]: 16.5 s; Bas [6]: 0%; Eos [6]: 0.6%; Fbg [6]: 196.4 mg/dL; Hb [6]: 13.5 g/dL; Ht [6]: 41.1%; Lym [6]: 74.8%; MCH [6]: 21 pg; MCHC [6]: 32.9%; MCV [6]: 63.9 fL; Mono [6]: 6%; Neu [6]: 18.6%; PT [6]: 12 s; Plat [6]: 117.6 x10_4/uL; RBC [6]: 643.6 x10_4/ul; Ret [6]: 4.2%; WBC [6]: 95.8 x10_2/uL; APTT [7]: 16.5 s; Bas [7]: 0%; Eos [7]: 0.8%; Fbg [7]: 190.2 mg/dL; Hb [7]: 14.7 g/dL; Ht [7]: 44.3%; Lym [7]: 69.4%; MCH [7]: 20 pg; MCHC [7]: 33.1%; MCV [7]: 60.5 fL; Mono [7]: 7.4%; Neu [7]: 22.4%; PT [7]: 12.6 s; Plat [7]: 128.2 x10_4/uL; RBC [7]: 733.8 x10_4/ul; Ret [7]: 3.6%; WBC [7]: 98.4 x10_2/uL; APTT [8]: 19.4 s; Bas [8]: 0%; Eos [8]: 0.6%; Fbg [8]: 163.2 mg/dL; Hb [8]: 16 g/dL; Ht [8]: 48.6%; Lym [8]: 80%; MCH [8]: 18.8 pg; MCHC [8]: 33%; MCV [8]: 56.9 fL; Mono [8]: 4.2%; Neu [8]: 15%; PT [8]: 14.2 s; Plat [8]: 117.8 x10_4/uL; RBC [8]: 859 x10_4/ul; Ret [8]: 1.5%; WBC [8]: 88.4 x10_2/uL; LIVER [6]: 12.9 g; LIVER [7]: 13.1 g; LIVER [8]: 12 g; A/G [6]: 2.2; ALP [6]: 1181.6 IU/L; ALT [6]: 26.2 IU/L; AST [6]: 65.8 IU/L; BUN [6]: 18 mg/dL; CRE [6]: 0.4 mg/dL; Ca [6]: 11.7 mg/dL; Cl [6]: 104 meq/L; DBIL [6]: 0.014 mg/dL; GLC [6]: 198.6 mg/dL; IP [6]: 6.4 mg/dL; K [6]: 4.2 meq/L; LDH [6]: 103.6 IU/L; Na [6]: 141 meq/L; PL [6]: 137.4 mg/dL; RALB [6]: 4 g/dL; TBIL [6]: 0.022 mg/dL; TC [6]: 73 mg/dL; TG [6]: 80 mg/dL; TP [6]: 5.8 g/dL; gamma-GTP [6]: 0.8 IU/L; A/G [7]: 2.4; ALP [7]: 1140.4 IU/L; ALT [7]: 43.2 IU/L; AST [7]: 101.8 IU/L; BUN [7]: 22.4 mg/dL; CRE [7]: 0.4 mg/dL; Ca [7]: 11.5 mg/dL; Cl [7]: 105.2 meq/L; DBIL [7]: 0.014 mg/dL; GLC [7]: 178.8 mg/dL; IP [7]: 7.4 mg/dL; K [7]: 4.3 meq/L; LDH [7]: 108.4 IU/L; Na [7]: 140.6 meq/L; PL [7]: 145.8 mg/dL; RALB [7]: 3.9 g/dL; TBIL [7]: 0.032 mg/dL; TC [7]: 68.4 mg/dL; TG [7]: 121.2 mg/dL; TP [7]: 5.6 g/dL; gamma-GTP [7]: 1 IU/L; A/G [8]: 2.2; ALP [8]: 639.6 IU/L; ALT [8]: 20.2 IU/L; AST [8]: 53 IU/L; BUN [8]: 20.8 mg/dL; CRE [8]: 0.4 mg/dL; Ca [8]: 10.6 mg/dL; Cl [8]: 107 meq/L; DBIL [8]: 0.01 mg/dL; GLC [8]: 188.2 mg/dL; IP [8]: 5.9 mg/dL; K [8]: 4.4 meq/L; LDH [8]: 79 IU/L; Na [8]: 142.8 meq/L; PL [8]: 122.4 mg/dL; RALB [8]: 3.9 g/dL; TBIL [8]: 0.038 mg/dL; TC [8]: 67.6 mg/dL; TG [8]: 65.2 mg/dL; TP [8]: 5.8 g/dL; gamma-GTP [8]: 1 IU/L
